Assay results from ChEMBL document CHEMBL1158281, “Montiporic acids A and B, cytotoxic and antimicrobial polyacetylene carboxylic acids from eggs of the scleractinian coral Montipora digitata” (J Nat Prod, 1996).
≈ marks a conversion by molar mass, not a printed value. Calls of active or inactive are those of the source. The rule behind the calls is not given here.

Assays:
P388 = assay: Cytotoxicity against mouse P388 cells; format: functional, cell-based
Escherichia coli = assay: Antibacterial activity against Escherichia coli; format: functional, organism-based

With `CCCCCCCC#CC#CCOCC(=O)O` [MONOTIPORIC ACID A] the IC50 (P388) was 5 µg/mL (≈ 21.2 µM) and the Activity (Escherichia coli) was “Active”.

With `C=CCCCCCCCC#CC#CCOCC(=O)O` [MONOTIPORIC ACID B] the IC50 (P388) was 12 µg/mL (≈ 45.7 µM) and the Activity (Escherichia coli) was “Active”.
